In the supplement of paper PMC10307832:

Columns and labels:
Test in all cases: relative viability (nuclei count vs DMSO), 5 days (fraction); higher = more cells survive
Lapatinib + Alpelisib = compound: CS(=O)(=O)CCNCc1ccc(-c2ccc3ncnc(Nc4ccc(OCc5cccc(F)c5)c(Cl)c4)c3c2)o1 [Lapatinib] + Cc1nc(NC(=O)N2CCC[C@H]2C(N)=O)sc1-c1ccnc(C(C)(C)C(F)(F)F)c1 [Alpelisib] (partner 2 µM)
Summary of the method: (§1)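 Dosing by pin tool came one day after lung cancer cell lines were seeded in 1536-well plates, using either one drug or a fixed anchor-drug dose plus five library-drug doses (not always all listed) in √10 steps. After 5 days, nuclei were counted on 4× images. Relative viability is treated-well nuclei count divided by vehicle-well nuclei count, and values are medians of duplicate plates.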

Lapatinib + Bortezomib = compound: CS(=O)(=O)CCNCc1ccc(-c2ccc3ncnc(Nc4ccc(OCc5cccc(F)c5)c(Cl)c4)c3c2)o1 [Lapatinib] + CC(C)C[C@H](NC(=O)[C@H](Cc1ccccc1)NC(=O)c1cnccn1)B(O)O [Bortezomib] (partner 0.002 µM)
Summary of the method: as §1

Lapatinib + Tozasertib = compound: CS(=O)(=O)CCNCc1ccc(-c2ccc3ncnc(Nc4ccc(OCc5cccc(F)c5)c(Cl)c4)c3c2)o1 [Lapatinib] + Cc1cc(Nc2cc(N3CCN(C)CC3)nc(Sc3ccc(NC(=O)C4CC4)cc3)n2)n[nH]1 [Tozasertib] (partner 0.1 µM)
Summary of the method: as §1

Wnt-C59 + Linsitinib = compound: CC1=NC=CC(=C1)C2=CC=C(C=C2)CC(=O)NC3=CC=C(C=C3)C4=CN=CC=C4 [Wnt-C59] + C[C@]1(O)C[C@@H](c2nc(-c3ccc4ccc(-c5ccccc5)nc4c3)c3c(N)nccn32)C1 [Linsitinib] (partner 1 µM)
Summary of the method: as §1

UMC-11
relative viability (Lapatinib + Alpelisib; first compound 0.02 µM): 0.861 | relative viability (Lapatinib + Alpelisib; first compound 0.06325 µM): 0.933 | relative viability (Lapatinib + Alpelisib; first compound 0.2 µM): 0.986 | relative viability (Lapatinib + Alpelisib; first compound 0.6325 µM): 0.887 | relative viability (Lapatinib + Alpelisib; first compound 2 µM): 1.09 | relative viability (Lapatinib + Bortezomib; first compound 0.02 µM): 0.838 | relative viability (Lapatinib + Bortezomib; first compound 0.06325 µM): 0.705 | relative viability (Lapatinib + Bortezomib; first compound 0.2 µM): 0.852 | relative viability (Lapatinib + Bortezomib; first compound 0.6325 µM): 0.798 | relative viability (Lapatinib + Bortezomib; first compound 2 µM): 0.665 | relative viability (Lapatinib + Tozasertib; first compound 0.06325 µM): 0.211 | relative viability (Lapatinib + Tozasertib; first compound 0.2 µM): 0.209 | relative viability (Lapatinib + Tozasertib; first compound 0.6325 µM): 0.184 | relative viability (Lapatinib + Tozasertib; first compound 2 µM): 0.211 | relative viability (Wnt-C59 + Linsitinib; first compound 0.001 µM): 0.96 | relative viability (Wnt-C59 + Linsitinib; first compound 0.01 µM): 0.977 | relative viability (Wnt-C59 + Linsitinib; first compound 0.03162 µM): 1.04 | relative viability (Wnt-C59 + Linsitinib; first compound 0.1 µM): 0.991
